Source: the supplement of paper PMC10307832

Tests used:
Test in all cases: relative viability (nuclei count vs DMSO), 5 days (fraction); higher = more cells survive
AZD6482 + Lapatinib = compound: Cc1cc([C@@H](C)Nc2ccccc2C(=O)O)c2nc(N3CCOCC3)cc(=O)n2c1 [AZD6482] + CS(=O)(=O)CCNCc1ccc(-c2ccc3ncnc(Nc4ccc(OCc5cccc(F)c5)c(Cl)c4)c3c2)o1 [Lapatinib] (partner 2 µM)
Procedure, shortened: (§1)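 Nuclei were stained with Hoechst during a one-step fixation (final 0.05% Triton X-100, 1% formaldehyde, 1 ug/ml Hoechst) carried out 5 days after dosing, then counted on 4× images. The cells, lung cancer lines in 1536-well plates, had been dosed by pin tool the day after seeding with one drug alone or a fixed anchor-drug dose plus five library-drug doses (not always all listed) in √10 steps. Relative viability is the nuclei count in treated wells divided by that in vehicle wells, and each value is the median of duplicate plates.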

AZD6482 + Luminespib = compound: Cc1cc([C@@H](C)Nc2ccccc2C(=O)O)c2nc(N3CCOCC3)cc(=O)n2c1 [AZD6482] + CCNC(=O)c1noc(-c2cc(C(C)C)c(O)cc2O)c1-c1ccc(CN2CCOCC2)cc1 [Luminespib] (partner 0.01 µM)
Procedure, shortened: as §1

[1] = compound: COc1cc2nc(N3CCCN(C)CC3)nc(NC3CCN(Cc4ccccc4)CC3)c2cc1OC + COc1cccc2cc(-c3nc([C@H]4CC[C@H](C(=O)O)CC4)n4ncnc(N)c34)[nH]c12 [OSI-027] (partner 0.5 µM)
Procedure, shortened: as §1

AZD6482 + AZD7762 = compound: Cc1cc([C@@H](C)Nc2ccccc2C(=O)O)c2nc(N3CCOCC3)cc(=O)n2c1 [AZD6482] + NC(=O)Nc1cc(-c2cccc(F)c2)sc1C(=O)N[C@H]1CCCNC1 [AZD7762] (partner 0.2 µM)
Procedure, shortened: as §1

| Cell Line | relative viability (AZD6482 + Lapatinib; first compound 0.08 µM) | relative viability (AZD6482 + Lapatinib; first compound 0.253 µM) | relative viability (AZD6482 + Lapatinib; first compound 0.8 µM) | relative viability (AZD6482 + Lapatinib; first compound 2.53 µM) | relative viability (AZD6482 + Lapatinib; first compound 8 µM) | relative viability (AZD6482 + Luminespib; first compound 0.08 µM) | relative viability (AZD6482 + Luminespib; first compound 0.253 µM) | relative viability (AZD6482 + Luminespib; first compound 0.8 µM) | relative viability (AZD6482 + Luminespib; first compound 2.53 µM) | relative viability (AZD6482 + Luminespib; first compound 8 µM) | relative viability ([1]; first compound 0.2 µM) | relative viability ([1]; first compound 0.6325 µM) | relative viability ([1]; first compound 2 µM) | relative viability ([1]; first compound 6.325 µM) | relative viability (AZD6482 + AZD7762; first compound 0.08 µM) | relative viability (AZD6482 + AZD7762; first compound 0.253 µM) | relative viability (AZD6482 + AZD7762; first compound 0.8 µM) | relative viability (AZD6482 + AZD7762; first compound 2.53 µM) | relative viability (AZD6482 + AZD7762; first compound 8 µM) |
| --- | --- | --- | --- | --- | --- | --- | --- | --- | --- | --- | --- | --- | --- | --- | --- | --- | --- | --- | --- |
| A549 | 0.944 | 0.891 | 0.913 | 0.485 | 0.571 |  |  |  |  |  |  |  |  |  |  |  |  |  |  |
| COR-L23 | 0.938 | 0.948 | 1.15 | 0.734 | 0.893 | 0.635 | 0.688 | 0.768 | 0.519 | 0.636 | 0.882 | 0.735 | 0.802 | 0.765 |  |  |  |  |  |
| COR-L 105 | 0.382 | 0.326 | 0.351 | 0.364 | 0.355 | 0.75 | 0.867 | 1.04 | 0.46 | 0.663 | 0.534 | 0.882 | 0.487 | 0.554 |  |  |  |  |  |
| Calu-6 | 1.05 | 1.07 | 1.14 | 0.879 | 0.953 |  |  |  |  |  |  |  |  |  |  |  |  |  |  |
| ChaGo-K-1 |  |  |  |  |  | 0.486 | 0.526 | 0.574 | 0.593 | 0.501 | 0.572 | 0.604 | 0.564 | 0.501 | 0.897 | 0.775 | 0.946 | 0.823 | 0.915 |
| EBC-1 | 0.184 | 0.196 | 0.211 | 0.218 | 0.216 |  |  |  |  |  |  |  |  |  |  |  |  |  |  |
| IA-LM | 0.898 | 1.13 | 0.903 |  | 0.626 |  |  |  |  |  |  |  |  |  |  |  |  |  |  |
| LCLC-103H |  |  |  |  |  | 0.741 | 0.751 | 0.804 | 0.602 | 0.64 | 0.454 | 0.564 | 0.537 | 0.449 | 0.626 | 0.721 | 0.619 | 0.579 | 0.562 |
| NCI-H441 |  |  |  |  |  | 0.389 | 0.375 | 0.3 |  | 0.262 | 0.576 | 0.521 | 0.573 | 0.591 | 1.02 | 1.18 | 1.36 |  | 1.19 |
| NCI-H520 | 0.644 | 0.397 | 0.619 |  | 0.263 | 0.208 | 0.281 | 0.199 | 0.206 | 0.211 | 0.315 | 0.269 | 0.212 | 0.234 |  |  |  |  |  |
| NCI-H522 |  |  |  |  |  | 1.22 | 1.07 | 0.879 | 0.946 | 0.88 | 0.654 | 0.755 | 0.74 | 0.499 | 0.764 | 0.73 | 0.803 | 0.762 | 0.664 |
| NCI-H661 | 0.531 | 0.455 | 0.393 |  | 0.369 | 0.959 | 0.945 | 0.968 | 0.635 | 0.918 | 0.734 | 0.691 | 0.772 | 0.725 |  |  |  |  |  |
| NCI-H1299 | 0.94 | 0.956 | 1.11 | 0.948 | 0.983 |  |  |  |  |  |  |  |  |  |  |  |  |  |  |
| NCI-H1563 | 0.902 | 0.842 | 0.876 | 0.674 | 0.778 | 0.504 | 0.541 | 0.584 | 0.478 | 0.522 | 0.748 | 0.713 | 0.773 | 0.729 |  |  |  |  |  |
| NCI-H1648 |  |  |  |  |  |  |  |  |  |  | 0.258 | 0.318 | 0.313 | 0.275 | 0.708 | 0.674 | 0.872 |  | 0.6 |
| NCI-H1650 | 0.754 |  | 0.688 | 0.602 | 0.681 | 0.182 | 0.189 | 0.204 | 0.186 | 0.194 | 0.602 | 0.857 | 0.519 | 0.555 |  |  |  |  |  |
| NCI-H1703 | 1.11 | 0.871 | 0.654 | 0.448 | 0.484 |  |  |  |  |  |  |  |  |  |  |  | 0.333 | 0.131 | 0.149 |
| NCI-H2009 | 1.1 | 1 | 1.04 | 0.579 | 0.815 | 1.04 | 1.11 | 1.08 | 0.771 | 0.963 | 0.681 | 0.531 | 0.784 | 0.29 |  |  |  |  |  |
| NCI-H2023 | 0.729 | 0.74 | 0.798 | 0.424 | 0.422 | 0.603 | 0.574 | 0.795 | 0.518 | 0.324 | 0.363 | 0.508 | 0.364 | 0.126 |  |  |  |  |  |
| NCI-H2228 | 0.834 | 0.994 | 0.971 | 0.662 | 0.715 |  | 0.119 | 0.118 | 0.115 | 0.169 | 0.539 | 0.451 | 0.499 | 0.256 |  |  |  |  |  |
| NCI-H2342 |  |  |  |  |  | 0.67 | 0.54 | 0.504 | 0.391 | 0.608 | 0.677 | 0.574 | 0.785 | 0.692 | 0.532 | 0.352 | 0.567 | 0.337 | 0.374 |
| SK-LU-1 |  | 0.76 | 0.849 | 0.687 | 0.513 |  | 0.189 | 0.203 | 0.145 | 0.168 | 0.358 | 0.302 | 0.36 | 0.179 |  |  |  |  |  |
| SK-MES-1 | 0.363 | 0.366 | 0.367 | 0.301 | 0.319 | 0.416 | 0.556 | 0.313 | 0.269 | 0.304 | 0.61 | 0.56 | 0.536 | 0.218 |  |  |  |  |  |
| SW 1573 | 1.15 | 1.13 | 1.02 | 0.771 | 0.759 | 0.218 | 0.219 | 0.246 | 0.194 | 0.206 | 0.564 | 0.787 | 0.551 | 0.254 |  |  |  |  |  |
| UMC-11 | 0.875 | 0.902 | 1.03 | 0.602 | 1.34 | 0.986 | 0.994 | 0.929 | 0.869 | 1.26 | 0.534 | 0.461 | 0.398 | 0.284 |  |  |  |  |  |
